Results as given in patent US12404232B2, “Compounds and compositions for intracellular delivery of therapeutic agents” (ModernaTX, Inc., priority 2015, dated 2025).

Tests used:
[1] = system: rats; assay: Residual lipid levels in liver and spleen of rats (UPLC-MS quantification); format: in vivo, rat; conditions: rats, 2 mpk, 48 h; assuming 300 g rat and 15 g liver
Protocol: At 48 h liver tissue was harvested for lipid quantification. To pre-weighed tissues, Milli-Q water was added (900 μL water per 100 mg tissue). Tissues were homogenized using an Omni probe homogenizer until uniform. 50 μL of samples and matrix calibration standards were aliquoted into a 96-well plate. 50 μL of blank matrix for matrix blanks and control blanks were aliquoted. 400 μL IS spiking solution were manually added to all samples except matrix blanks. 400 μL of 50:50 ACN:IPA were manually added to matrix blanks. The plate was covered and the samples vortexed and centrifuged for 5 minutes at >3000 rpm. 200 μL of the samples were transferred into a clean 96-well plate for analysis. Samples were analyzed on a Waters Acquity UPLC using a Higgins Analytical Clipeus C8 column ([…], 30×2.1 mm) and a gradient of either 70-95% or 60-95% (Mobile Phase A: 5 mM ammonium formate in 50:50:1 H2O:MeOH:formic acid; Mobile Phase B: 5 mM ammonium formate in 100:1 MeOH:formic acid) over 1.3 min at 1.2 mL/min (column temperature 55° C.). Detection was based on electrospray ionization (ESI) in positive mode using a Sciex API5500 Mass Spectrometer.
The expression of hEPO in rats intravenously administered a nanoparticle composition at a dose of 0.2 mpk or 2.0 mpk was measured at 6 hours. Table 16 summarize the ratio of hEPO expression levels using various nanoparticle compositions as compared to the hEPO expression level using MC3 formulation and the lipid levels in the liver measured 48 hours after administration, as described above. Tables 17 and 18 summarize the lipid levels in the liver and spleen measured 48 hours after administration of Compounds 28, 33, 53, and 54. Liver and spleen levels represent the average values calculated for 3 rats in each group. As is shown in Tables 17 and 18, less than 10% of Compounds 28, 33, 53, and 54 remained in the liver after 48 hours, while greater than 60% of MC3 remained.
Table 19 summarizes the hEPO expression, IP-10 induction, liver and spleen levels, and alanine aminotransferase (ALT) and aspartate aminotransferase (AST) measured upon intravenous administration of formulations including Compounds 48, 49, and 50 to rat at 0.2 and 2 mpk and hEPO mRNA. hEPO concentrations were measured 6 hours after administration, while cytokine induction and liver and spleen levels were measured 48 hours after administration. hEPO and IP-10 concentrations are presented in pg/ml, while liver levels are provided in ng/g. ALT and AST levels are presented in international units.
The expression of hEPO induced by intravenous administration to rats of nanoparticle compositions at various doses was measured at 2, 4, 6, 8, 24, and 48 hour time points. FIGS. 3-6 respectively summarize the hEPO expression measured upon intravenous administration of formulations including Compounds 26, 18, 25, and MC3 to rat at various doses. The lipid levels of Compound 26 in the liver after 48 hours were about 19%.
The expression of hEPO and lipid levels in the liver and spleen in rats intravenously administered a nanoparticle composition at a dose of 0.2 mpk was measured at various timepoints. Compounds 18 and 25 were selected for comparison with MC3. Lipids were formulated according to the standard MC3 formulation described above. Rats were administered intravenously a single 0.2 mpk dose and expression monitored at 0.25, 0.5, 1, 2, 4, 8, 24, and 48 hours after administration.

[2] = system: mice; assay: Luc expression (total flux) after intramuscular administration; format: in vivo; conditions: 6 hours after intramuscular administration, Luc mRNA and H10 mRNA
Protocol: The numbers 1-7 in this figure correspond to MC3, Compounds 168-170, and 173-175 respectively.
(§1) In order to monitor how effectively various nanoparticle compositions deliver therapeutic and/or prophylactics to targeted cells, different nanoparticle compositions including a particular therapeutic and/or prophylactic (for example, a modified or naturally occurring RNA such as an mRNA) are prepared and administered to rodent populations. Mice are intravenously, intramuscularly, intraarterially, or intratumorally administered a single dose including a nanoparticle composition with a formulation such as those provided in Example 3. In some instances, mice may be made to inhale doses. Dose sizes may range from 0.001 mg/kg to 10 mg/kg, where 10 mg/kg describes a dose including 10 mg of a therapeutic and/or prophylactic in a nanoparticle composition for each 1 kg of body mass of the mouse. A control composition including PBS may also be employed.
(§2) The total flux (measured by area under the curve, AUC) induced by administration of a formulation including a given lipid relative to that induced by administration of a formulation including MC3 was also measured for several lipids.
Sample formulations including both modified luciferase (Luc) mRNA and H10 mRNA were prepared and administered intramuscularly and the resulting expression and immunogenicity were evaluated simultaneously. Formulations including compounds according to Formula (I), (IA), (II), (IIa), (IIb), (IIc), (IId) or (IIe) were prepared and administered at doses of 0.001 and 0.01 mpk (e.g., doses of 0.0005 mpk of a formulation including Luc mRNA and a formulation including H10 mRNA or doses of 0.005 mpk of a formulation including Luc mRNA and a formulation including H10 mRNA).
Sample formulations including modified luciferase (Luc) mRNA prepared and administered intramuscularly and the resulting expression and immunogenicity were evaluated simultaneously. Formulations including compounds according to Formula (I), (IA), (II), (IIa), (IIb), (IIc), (IId) or (IIe) were prepared and administered at dose of […] 0.01 mpk.
The fluxes measured upon intravenous and intramuscular administration are compared in Table 6. Fluxes are presented as fold increase over that measured for MC3 formulations.

[3] = Particle size and polydispersity index of nanoparticle compositions (Zetasizer Nano ZS); format: physicochemical; conditions: for PDI: nanoparticle composition 50:10:38.5:1.5 mol % (Table 1A); for Size (nm): nanoparticle composition lipid:DSPC:cholesterol:PEG-DMG 50:10:38.5:1.5 mol %, mRNA encoding Luc or hEPO (Table 1A)
Description: Nanoparticle compositions may be characterized by a variety of methods. For example, microscopy (e.g., transmission electron microscopy or scanning electron microscopy) may be used to examine the morphology and size distribution of a nanoparticle composition. Dynamic light scattering or potentiometry (e.g., potentiometric titrations) may be used to measure zeta potentials. Dynamic light scattering may also be utilized to determine particle sizes. Instruments such as the Zetasizer Nano ZS (Malvern Instruments Ltd, Malvern, Worcestershire, UK) may also be used to measure multiple characteristics of a nanoparticle composition, such as particle size, polydispersity index, and zeta potential.
A Zetasizer Nano ZS (Malvern Instruments Ltd, Malvern, Worcestershire, UK) can be used to determine the particle size, the polydispersity index (PDI) and the zeta potential of the nanoparticle compositions in 1×PBS in determining particle size and 15 mM PBS in determining zeta potential.
Initial studies were performed to compare the delivery efficiency of nanoparticle compositions including various compounds according to Formula (I), (IA), (II), (IIa), (IIb), (IIc), (IId) or (IIe). The cationic lipid MC3 is a current standard in the art. Accordingly, the standard MC3 formulation including about 50 mol % MC3, about 10 mol % DSPC, about 38.5 mol % cholesterol, and about 1.5 mol % PEG-DMG was used as a basis for this study. Nanoparticle compositions including DSPC as a phospholipid, cholesterol as a structural lipid, PEG-DMG as a PEG lipid, an RNA, and a compound according to Formula (I), (IA), (II), (IIa), (IIb), (IIc), (IId) or (IIe) selected from Compounds 1-159, 168-170, and 173-175 were prepared according to or via methods similar to those described in Examples 1 and 2. The ratios of the lipids were 50:10:38.5:1.5 mol % for the lipid according to Formula (I), (IA), (II), (IIa), (IIb), (IIc), (IId) or (IIe):DSPC:cholesterol:PEG-DMG. The RNA used was an mRNA encoding G5 luciferase (Luc) or G5 hEPO. Tables 1A-1B summarize the content and characteristics of the formulations. […]

[4] = system: mice; assay: Luc expression (bioluminescence, total flux) after intravenous administration to mice; format: in vivo; conditions: Luc total flux (Table 3D)
Protocol: as §1
Upon administration of nanoparticle compositions to mice, dose delivery profiles, dose responses, and toxicity of particular formulations and doses thereof can be measured by enzyme-linked immunosorbent assays (ELISA), bioluminescent imaging, or other methods. For nanoparticle compositions including mRNA, time courses of protein expression can also be evaluated. Samples collected from the rodents for evaluation may include blood, sera, and tissue (for example, muscle tissue from the site of an intramuscular injection and internal tissue); sample collection may involve sacrifice of the animals.
The efficacy of the nanoparticle compositions presented in Table 1A was evaluated with a bioluminescence study. Formulations were administered intravenously to mice (n=6) at a dosage of 0.5 mg/kg (mpk) and bioluminescence measured at 3, 6, and 24 hour time points. The standard MC3 formulation and, in some instances, a control (e.g., a PBS control) were evaluated for comparison. […] In general, flux decreased as time progressed to less than 10% of the initial flux.
as §2
The tolerability and efficacy of nanoparticle compositions to non-human primates was also investigated using sample formulations including Compounds 18, 25, 26, and 48 and MC3 to determine if these compounds are differentiated in terms of protein expression. The formulations were prepared according to the standard MC3 formulation described above and included an hEPO mRNA. Table 30 includes details of the compositions tested, while Table 31 summarizes the relative expression of Luc and hEPO mRNA in mice and rats. Expression was measured 6 hours after administration.

% Lipid Remaining in liver, 48 h* 2 mpk [1] [%]	SMILES	AUC (p/s*h) [4] [p/s*h]	other results
20	CCCCCCCCCOC(=O)CCCN(CCO)CCCCCCCC(=O)OC(CCCCCCCC)CCCCCCCC [Compound 26, Heptadecan-9-yl 8-((2-hydroxyethyl)(4-(nonyloxy)-4-oxobutyl)amino)octanoate]	–	Total flux (p/s) 0.001 mpk Dose [2]: 3.90E+06 p/s; Total flux (p/s) 0.01 mpk Dose [2]: 6.13E+07 p/s
7.22	CCCCCCCCC(C)OC(=O)CCCCCCCN(CCO)CCCCCCCC(=O)OC(CCCCCCCC)CCCCCCCC (stereo not shown) [Compound 48, decan-2-yl 8-((8-(heptadecan-9-yloxy)-8-oxooctyl)(2-hydroxyethyl)amino)octanoate]	–	Total flux (p/s) 0.001 mpk Dose [2]: 4.69E+05 p/s; Total flux (p/s) 0.01 mpk Dose [2]: 8.78E+06 p/s
12.6	CCCCCCCCC(CC)OC(=O)CCCCCCCN(CCO)CCCCCCCC(=O)OC(CCCCCCCC)CCCCCCCC (stereo not shown) [Compound 49, heptadecan-9-yl 8-((2-hydroxyethyl)(8-oxo-8-(undecan-3-yloxy)octyl)amino)octanoate]	–	PDI [3]: 0.110; Size (nm) [3]: 73.1 nm
15.9	CCCCCCCCC(CCC)OC(=O)CCCCCCCN(CCO)CCCCCCCC(=O)OC(CCCCCCCC)CCCCCCCC (stereo not shown) [Compound 50, dodecan-4-yl 8-((8-(heptadecan-9-yloxy)-8-oxooctyl)(2-hydroxyethyl)amino)octanoate]	–	Total flux (p/s) 0.001 mpk Dose [2]: 6.56E+05 p/s; Total flux (p/s) 0.01 mpk Dose [2]: 1.13E+07 p/s
–	CCCCCCCCCC(=O)OCCCCCCCN(CCO)CCCCCCCOC(=O)C(CCCCCCCC)CCCCCCCC [Compound 151, 7-((7-(Decanoyloxy)heptyl)(2-hydroxyethyl)amino)heptyl 2-octyldecanoate]	7.010E+011	–
–	CCCCCCCCCOC(=O)CCCCCCCN(CCO)CCCCCCC/C=C\C(CCCCCCCC)CCCCCCCC [Compound 152, Nonyl (Z)-8-((2-hydroxyethyl)(10-octyloctadec-8-en-1-yl)amino)octanoate]	2.855E+010	–
–	CCCCCCCCCOC(=O)CCCCCCCN(CCO)CCCCCCCCCC(CCCCCCCC)CCCCCCCC [Compound 153, Nonyl 8-((2-hydroxyethyl)(10-octyloctadecyl)amino)octanoate]	2.697E+011	–
–	CCCCCCCCCOC(=O)CCCCCCCN(CCCCCCCC(=O)OC(CCCCCCCC)CCCCCCCC)CCOCCO [Compound 154, Heptadecan-9-yl 8-((2-(2-hydroxyethoxy)ethyl)(8-(nonyloxy)-8-oxooctyl)amino)octanoate]	5.560E+010	–
–	CCCCCCCCC(CCCCCCCC)OC(=O)CCCCCCCN(CCO)CCCCCCCC(=O)OC(C)(C)C [Compound 155, tert-Butyl 8-((8-(heptadecan-9-yloxy)-8-oxooctyl)(2-hydroxyethyl)amino)octanoate]	1.266E+011	–
–	CCCCCCCCCOC(=O)CCCCCCCN(CCCCCCCC(=O)OC(CCCCCCCC)CCCCCCCC)C(CO)CO [Compound 156, Heptadecan-9-yl 8-((1,3-dihydroxypropan-2-yl)(8-(nonyloxy)-8-oxooctyl)amino)octanoate]	1.170E+011	PDI [3]: 0.072; Size (nm) [3]: 74.3 nm
–	CCCCCCCCCOC(=O)CCCCCCCN(CCO)CCCCCCCC(=O)OC(C)(C)C [Compound 158, tert-Butyl 8-((2-hydroxyethyl)(8-(nonyloxy)-8-oxooctyl)amino)octanoate]	1.211E+007	–
–	CCCCCCCCCOC(=O)CCCCCCCN(CCO)CCN(CCO)CCCCCCCC(=O)OC(CCCCCCCC)CCCCCCCC [Compound 159, Heptadecan-9-yl 8-((2-hydroxyethyl)(2-((2-hydroxyethyl)(8-(nonyloxy)-8-oxooctyl)amino)ethyl)amino)octanoate]	1.355E+008	–
